The compounds below were run on ulcer (assay: Anti-ulcer test (restraint and water immersion ulcer in rats, i.p.)). Conditions: Rattus norvegicus, ip, read-out: % Inhibition of Ulcer.
Type: in vivo, Male Wistar rats
Experimental: The anti-ulcer and anti-edema activity of the compounds was evaluated in efficacy tests described below.
Male Wistar rats weighing about 150 g on average were not fed for 24 hours before the test. Then a solution or suspension of a predetermined concentration of the test compound in physiological saline was administered to them intraperitoneally. One hour after the administration,each rat was restrained in a net cage and submerged in a water both (21° C.) from the tail to xiphistrenun for 6 hours. Test animals were then killed (by dislocation of the cervical vertebrae), the stomach was removed and incised along the curvatura ventriculi major, and the inside wall of the stomach was pathologically examined under microscopic observation. Rats in which the occurrence of an ulceration was substantially not observed were rated O, while others were rated 0.5, 1, 2 or 3, depending on the severity of the ulcer development. The percent inhibition of ulcer was calculated by the following formula: [formula]

| Compound | inhibition in vivo at 25 mg/kg | inhibition in vivo at 50 mg/kg |
| --- | --- | --- |
| CCC(=O)OC(C(=O)NC(CC(C)C)C1Cc2cccc(O)c2C(=O)O1)C(O)C(CC(=O)NC)NC(C)=O (centres unmarked) [VII-29-1] | 66% |  |
| CC(C)CC(NC(=O)C(O)C1OC(=O)CC1NCCCCBr)C1Cc2cccc(O)c2C(=O)O1 (centres unmarked) [IIIa-18-26] |  | 94% |
| CC(C)CC(NC(=O)C(O)C1OC(=O)CC1NC(=O)C1CC1)C1Cc2cccc(O)c2C(=O)O1 (centres unmarked) [IIIa-1-18] |  | 66% |
| CSC(C)(C)CC(=O)NC1CC(=O)OC1C(O)C(=O)NC(CC(C)C)C1Cc2cccc(O)c2C(=O)O1 (centres unmarked) [IIIa-1-82] |  | 66% |

Same assay, conditions: Rattus norvegicus, ip; 25 mg/kg i.p.; read-out: % Inhibition of Ulcer

| Compound | inhibition in vivo at 25 mg/kg |
| --- | --- |
| CCCCCC(=O)OC(C)CCNC(=O)CC(N)C(O)C(O)C(=O)NC(CC(C)C)C1Cc2cccc(O)c2C(=O)O1 (centres unmarked) [VII-1-29] | 94% |
| CC(C)CC(NC(=O)C(O)C(O)C(N)CC(=O)NCCC1CCCCO1)C1Cc2cccc(O)c2C(=O)O1 (centres unmarked) [VII-1-16] | 94% |
| Cc1ccc(NC(=O)CC(N)C(O)C(O)C(=O)NC(CC(C)C)C2Cc3cccc(O)c3C(=O)O2)cc1 (centres unmarked) [VII-1-43] | 94% |
| CNC(CC(N)=O)C(O)C(OC)C(=O)NC(CC(C)C)C1Cc2cccc(OC(C)=O)c2C(=O)O1 (centres unmarked) [VII-27-1] | 66% |
| CC(C)=CCCC(C)=CCNC(=O)CC(N)C(O)C(O)C(=O)NC(CC(C)C)C1Cc2cccc(O)c2C(=O)O1 (centres unmarked) [VII-1-30] | 83% |
| CCCCNC(=O)CC(NCCCC)C(O)C(O)C(=O)NC(CC(C)C)C1Cc2cccc(O)c2C(=O)O1 (centres unmarked) [VII-10-4] | 72% |
| CCC(=O)OC(C(=O)NC(CC(C)C)C1Cc2cccc(OC)c2C(=O)O1)C(O)C(CC(N)=O)NC(C)=O (centres unmarked) [VII-33-1] | 66% |
| CCCCCCCCCCCCCCCCCCNC(=O)CC(N)C(O)C(O)C(=O)NC(CC(C)C)C1Cc2cccc(O)c2C(=O)O1 (centres unmarked) [VII-1-6] | 89% |
| COC(C(=O)NC(CC(C)C)C1Cc2cccc(OC(=O)C(C)C)c2C(=O)O1)C(O)C(CC(N)=O)NC(C)=O (centres unmarked) [VII-36-1] | 66% |
| COc1ccc(CNC(=O)CC(N)C(O)C(O)C(=O)NC(CC(C)C)C2Cc3cccc(O)c3C(=O)O2)cc1 (centres unmarked) [VII-1-24] | 83% |
| CC(C)CC(NC(=O)C(O)C(O)C(N)CC(=O)NCCN1CCCCC1)C1Cc2cccc(O)c2C(=O)O1 (centres unmarked) [VII-1-46] | 94% |
| CCCCCCCCCCCCCCCCCCNC(CC(N)=O)C(O)C(O)C(=O)NC(CC(C)C)C1Cc2cccc(O)c2C(=O)O1 (centres unmarked) [VII-10-5] | 89% |

Same assay, conditions: Rattus norvegicus, ip; 50 mg/kg i.p.; read-out: % Inhibition of Ulcer

| Compound | inhibition in vivo at 50 mg/kg |
| --- | --- |
| Cc1c(CC(=O)NC2CC(=O)OC2C(O)C(=O)NC(CC(C)C)C2Cc3cccc(O)c3C(=O)O2)ccc2ccccc12 (centres unmarked) [IIIa-1-21] | 56% |
| CC(=O)N1CCC(COc2cccc3c2C(=O)OC(C(CC(C)C)NC(=O)C(O)C2C=CC(=O)O2)C3)CC1 (centres unmarked) [IVa-4-16] | 33% |
| CC(=O)OC(C(=O)NC(CC(C)C)C1Cc2cccc(O)c2C(=O)O1)C1OC(=O)CC1NC(=O)c1ccc(C)cc1 (centres unmarked) [IIIa-2-8] | 44% |
| CNC1CC(=O)OC1C(OC(C)=O)C(=O)NC(CC(C)C)C1Cc2cccc(O)c2C(=O)O1 (centres unmarked) [IIIa-28-1] | 66% |
| CCOc1cccc2c1C(=O)OC(C(CC(C)C)NC(=O)C(OC(C)=O)C1OC(=O)CC1N)C2 (centres unmarked) [IIIa-14-1] | 56% |
| CCOc1cccc2c1C(=O)OC(C(CC(C)C)NC(=O)C(O)C1OC(=O)CC1NC(=O)C1CCC=CO1)C2 (centres unmarked) [IIIa-5-58] | 44% |
| CCNC1CC(=O)OC1C(OC(=O)CC)C(=O)NC(CC(C)C)C1Cc2cccc(O)c2C(=O)O1 (centres unmarked) [IIIa-19-9] | 66% |
| CCOc1cccc2c1C(=O)OC(C(CC(C)C)NC(=O)C(O)C1OC(=O)CC1NC(=O)CC(C)C)C2 (centres unmarked) [IIIa-5-2] | 44% |
| CCOc1cccc2c1C(=O)OC(C(CC(C)C)NC(=O)C(O)C1OC(=O)CC1NC(=O)c1ccc(CCC(C)C)cc1)C2 (centres unmarked) [IIIa-5-38] | 33% |
| CNC(CC(=O)O)C(O)C(OC)C(=N)NC(CC(C)C)C1Cc2cccc(OC(C)=O)c2C(=O)O1 (centres unmarked) [Vb-27-1] | 66% |
| CCCCCCCCCCCCCCCCCCNC1CC(=O)OC1C(O)C(=O)NC(CC(C)C)C1Cc2cccc(OCCCCC)c2C(=O)O1 (centres unmarked) [IIIa-22-6] | 72% |
| CC(C)CC(NC(=O)C(O)C1OC(=O)CC1NC(=O)CCC1CCCC1)C1Cc2cccc(O)c2C(=O)O1 (centres unmarked) [IIIa-1-63] | 66% |
| CCCCCCCCCCCCCCCCCC(=O)Oc1cccc2c1C(=O)OC(C(CC(C)C)NC(=O)C(OC)C1OC(=O)CC1N)C2 (centres unmarked) [IIIa-17-2] | 44% |
| CCCCCCCCCCCCCCCCCCOc1cccc2c1C(=O)OC(C(CC(C)C)NC(=O)C(O)C1OC(=O)CC1NC(=O)CCCCCC)C2 (centres unmarked) [IIIa-5-12] | 33% |
| CNC1CC(=O)OC1C(O)C(=O)NC(CC(C)C)C1Cc2cccc(OC(C)=O)c2C(=O)O1 (centres unmarked) [IIIa-30-1] | 78% |
| CC(=O)OC(C(=O)NC(CC(C)C)C1Cc2cccc(O)c2C(=O)O1)C1OC(=O)CC1NC(=O)CC(C)C (centres unmarked) [IIIa-2-3] | 44% |
| CC(C)CC(NC(=O)C(O)C1OC(=O)CC1NC(=O)c1nnnn1C)C1Cc2cccc(O)c2C(=O)O1 (centres unmarked) [IIIa-1-27] | 66% |
| CC(C)CCOc1cccc2c1C(=O)OC(C(CC(C)C)NC(=O)C(O)C1OC(=O)CC1N)C2 (centres unmarked) [IIIa-13-4] | 100% |
| CC(C)CCOc1ccc(C(=O)Oc2cccc3c2C(=O)OC(C(CC(C)C)NC(=O)C(O)C2OC(=O)CC2N)C3)cc1 (centres unmarked) [IIIa-12-8] | 72% |
| CCOc1cccc2c1C(=O)OC(C(CC(C)C)NC(=N)C(OC(=O)CC)C(O)C(N)CC(=O)O)C2 (centres unmarked) [Vb-6-3] | 66% |
| CCOc1cccc2c1C(=O)OC(C(CC(C)C)NC(=O)C(O)C1OC(=O)CC1NC(=O)c1cocc1C(=O)O)C2 (centres unmarked) [IIIa-5-59] | 44% |
| C#CC(=O)NC1CC(=O)OC1C(O)C(=O)NC(CC(C)C)C1Cc2cccc(O)c2C(=O)O1 (centres unmarked) [IIIa-1-52] | 66% |
| CC(C)CC(NC(=O)C(O)C1OC(=O)CC1NC(=O)Cc1ccc2ccccc2c1)C1Cc2cccc(O)c2C(=O)O1 (centres unmarked) [IIIa-1-64] | 56% |

| Compound | inhibition in vivo at 50 mg/kg |
| --- | --- |
| CC(=O)OC(C(=O)NC(CC(C)C)C1Cc2cccc(O)c2C(=O)O1)C1OC(=O)CC1NC(=O)c1ccc(OCCC(C)C)cc1 (centres unmarked) [IIIa-2-9] | 33% |
| CC(=O)Oc1cccc2c1C(=O)OC(C(CC(C)C)NC(=O)C(OC(C)=O)C1OC(=O)CC1NC(=O)C1CCCO1)C2 (centres unmarked) [IIIa-3-6] | 33% |
| CCCCN=C(NC(CC(C)C)C1Cc2cccc(O)c2C(=O)O1)C(O)C(O)C(CC(=O)O)NCCCC (centres unmarked) [Vb-10-3] | 89% |
| CCCCOc1cccc2c1C(=O)OC(C(CC(C)C)NC(=O)C(O)C1C=CC(=O)O1)C2 (centres unmarked) [IVa-4-3] | 44% |
| CCOc1cccc2c1C(=O)OC(C(CC(C)C)NC(=O)C(O)C1OC(=O)CC1NC(=O)C13CC4CC(CC(C4)C1)C3)C2 (centres unmarked) [IIIa-5-15] | 33% |
| CSCC(=O)NC1CC(=O)OC1C(O)C(=O)NC(CC(C)C)C1Cc2cccc(O)c2C(=O)O1 (centres unmarked) [IIIa-1-44] | 66% |
| CCCCC(=O)OC(C(=O)NC(CC(C)C)C1Cc2cccc(O)c2C(=O)O1)C1C=CC(=O)O1 (centres unmarked) [IVa-1-6] | 44% |
| CCCCCCCCOc1cccc2c1C(=O)OC(C(CC(C)C)NC(=O)C(O)C1OC(=O)CC1NCCCCCCC)C2 (centres unmarked) [IIIa-22-12] | 72% |
| CC(C)CC(NC(=O)C(O)C1OC(=O)CC1NC(=O)c1ccccc1)C1Cc2cccc(O)c2C(=O)O1 (centres unmarked) [IIIa-1-14] | 56% |
| CCCCCCCCCCCCCCCCCCNC1CC(=O)OC1C(OCCCC)C(=O)NC(CC(C)C)C1Cc2cccc(OC(C)=O)c2C(=O)O1 (centres unmarked) [IIIa-26-3] | 44% |
| CC(C)CC(NC(=O)C(O)C1OC(=O)CC1N)C1Cc2cccc(OCCc3ccc4ccccc4c3)c2C(=O)O1 (centres unmarked) [IIIa-13-18] | 72% |
| CCCCCC(=O)Oc1cccc2c1C(=O)OC(C(CC(C)C)NC(=O)C(O)C1C=CC(=O)O1)C2 (centres unmarked) [IVa-3-5] | 33% |
| CCCCCCC(=O)NC1CC(=O)OC1C(O)C(=O)NC(CC(C)C)C1Cc2cccc(O)c2C(=O)O1 (centres unmarked) [IIIa-1-8] | 66% |
| CCCCCCCCCCCCCCCCCCNC1CC(=O)OC1C(OC(C)=O)C(=O)NC(CC(C)C)C1Cc2cccc(O)c2C(=O)O1 (centres unmarked) [IIIa-19-3] | 56% |
| CC(C)CC(NC(=O)C(O)C1OC(=O)CC1NCC(Cl)(Cl)Cl)C1Cc2cccc(O)c2C(=O)O1 (centres unmarked) [IIIa-18-12] | 94% |
| CCOc1cccc2c1C(=O)OC(C(CC(C)C)NC(=O)C(OC(=O)C(C)C)C1OC(=O)CC1NC)C2 (centres unmarked) [IIIa-32-2] | 44% |
| C/C=C/C(=O)Oc1cccc2c1C(=O)OC(C(CC(C)C)NC(=O)C(O)C1C=CC(=O)O1)C2 (centres unmarked) [IVa-3-18] | 33% |
| CCCCCCCCCCCCCCCCCCOC(C(=O)NC(CC(C)C)C1Cc2cccc(O)c2C(=O)O1)C1OC(=O)CC1N (centres unmarked) [IIIa-16-3] | 56% |
| CC(C)CC(NC(=O)C(O)C1OC(=O)CC1N)C1Cc2cccc(OCC3CCCCC3)c2C(=O)O1 (centres unmarked) [IIIa-13-11] | 78% |
| CCOc1cccc2c1C(=O)OC(C(CC(C)C)NC(=O)C(O)C1OC(=O)CC1NC(=O)C(=O)CC)C2 (centres unmarked) [IIIa-5-32] | 44% |
| CC(C)CC(NC(=O)C(O)C1OC(=O)CC1N)C1Cc2cccc(OCCCl)c2C(=O)O1 (centres unmarked) [IIIa-13-6] | 94% |
| CCCCCCCCCCCCCCCCCCOc1cccc2c1C(=O)OC(C(CC(C)C)NC(=O)C(OC(C)=O)C1OC(=O)CC1NC(=O)C1CCCO1)C2 (centres unmarked) [IIIa-6-6] | 33% |
| CC(C)CC(NC(=O)C(O)C1OC(=O)CC1N)C1Cc2cccc(OCC3CCCO3)c2C(=O)O1 (centres unmarked) [IIIa-13-14] | 89% |

Reference: patent US4393225A, “AI-77 Compounds and pharmaceutically acceptable salts thereof” (Asahi Kasei Kogyo Kabushiki Kaisha, priority 1979, dated 1983)
